According to patent publication EP0628046B1, “TRIAZOLOPYRIMIDIN DERIVATIVES AS ANTIOTENSIN II RECEPTOR ANTAGONISTS” (LABORATOIRES UPSA, priority 1992, dated 1993):

Tests used:
[1] = test system: récepteurs surrénaliens de l'angiotensine Il; test: Displacement of [125I]-SIAII radioligand from adrenal angiotensin II receptors (rat adrenal homogenate); type: binding; conditions: 60 min at 25°C
From the text: L'affinité des produits des exemples pour les récepteurs de l'angiotensine Il est évaluée par technique de déplacement d'un radioligand spécifiquement fixé sur les récepteurs surrénaliens de l'angiotensine Il, chez le rat.
Une aliquote d'un homogénat de surrénales de rat incube en présence d'une concentration unique de [1251] - SIAII (Sar1, Tyr4, Ile8 - angiotensine il), antagoniste des récepteurs de l'angiotensine Il, et de deux concentrations d'agents compétiteurs (10^-5 M, 10^-7 M) durant 60 min à 25°C.
La réaction est achevée par ajout de tampon, puis rapide filtration à travers des filtres de papier de verre. La liaison non spécifique est déterminée en présence d'angiotensine II.
Les résultats sont exprimés, pour les concentrations testées, en pourcentage de déplacement du radioligand spécifiquement fixé sur les récepteurs surrénaliens de l'angiotensine il.

[2] = test system: cellules musculaires lisses d'aortes de rat (CMLV); test: Inhibition of PDGF-induced cell proliferation (3H-thymidine incorporation) in rat aortic smooth muscle cells; type: cell-based; conditions: 1E - 4M; 1 h pretreatment, 22 h PDGF stimulation
Procedure: B. Mesure de l'inhibition de la prolifération cellulaire induite par les facteurs de croissance (exemple : le Platelet-Derived Growth Factor ou PDGF) dans les cellules musculaires lisses d'aortes de rat
L'inhibition de la prolifération cellulaire induite par un facteur de croissance (exemple : le PDGF) est évaluée par mesure de l'incorporation de 3H-thymidine dans les cellules musculaires lisses d'aortes de rat (CMLV).
Les CMLV sont cultivées à 37°C, en 5 % C02, jusqu'à la sous-confluence puis placées pendant 24 heures en quiescence dans un milieu pauvre en sérum. Elles sont ensuite prétraitées pendant une heure par la molécule à tester (10^-4M) puis stimulées pendant 22 heures par un facteur de croissance (exemple : le PDGF). L'incorporation de 3H-thymidine est effectuée pendant les 4 dernières heures. Toutes ces étapes sont effectuées à 37°C, en 5 % CO2. La réaction est terminée par aspiration du milieu réactionnel, détachement des cellules, puis filtration des cellules lysées à travers des filtres en fibres de verre.
Les résultats sont exprimés en pourcentage d'inhibition de la stimulation d'incorporation de 3H-thymidine due à l'action du facteur de croissance.

Row | Molecule | % de déplacement du ligand marqué ([1]; competitor 1E-5M, 10 µM) [%] | % de déplacement du ligand marqué ([1]; competitor 1E-7M, 0.1 µM) [%] | % inhibition de l'incorporation de 3H-thymidine induite par le PDGF [2] [%]
1 | CCCc1c(Cc2ccc(-c3ccccc3-c3nnn[nH]3)cc2)c(O)nc2ncnn12 [Exemple 63, 5-hydroxy-7-propyl-6-[(2'-(1-H-tétrazol-5-yl)biphényl-4-yl)méthyl]-1,2,4-triazolo [1,5-a] pyrimidine] | 61 | 52 | 
2 | CCCc1c(Cc2ccc(-c3sccc3-c3nnn[nH]3)cc2)c(O)nc2ncnn12 [Exemple 79, 5-hydroxy-7-propyl-6-[4-[3-(1-H-tétrazol-5-yl)-2-thiényl]benzyl]-1,2,4-triazolo [1,5-a] pyrimidine] | 58 | 26 | 
3 | CCCc1c(Cc2ccc(-c3ccccc3-c3nnn[nH]3)cc2)c(O)nc2nc(N)nn12 [Exemple 75, 2-amino-5-hydroxy-7-propyl-6-[(2'-(1-H-tétrazol-5-yl)biphényl-4-yl)méthyl]-1,2,4-triazolo [1,5-a] pyrimidine] | 61 | 60 | 
4 | CCCc1nc2nc(CC)nn2c(O)c1Cc1ccc(-c2ccccc2-c2nnn[nH]2)cc1 [Exemple 68, 2-éthyl-7-hydroxy-5-propyl-6-[(2'-(1-H-tétrazol-5-yl)biphényl-4-yl)méthyl]-1,2,4-triazolo [1,5-a] pyrimidine] | 69 | 59 | 
5 | CCCCc1c(Cc2ccc(-c3ccccc3-c3nnn[nH]3)cc2)c(O)nc2nc(C)nn12 [Exemple 82, 7-butyl-5-hydroxy-2-méthyl-6-[(2'(1-H-tétrazol-5-yl)biphényl-4-yl)méthyl]-1,2,4-triazolo [1,5-a] pyrimidine] | 58 | 11 | 
6 | CCCc1c(Cc2ccc(-c3ccccc3-c3nnn[nH]3)cc2)c(N(CC)CC)nc2ncnn12 [Exemple 76, 5-N,N-diéthylamino-7-propyl-6-[(2'-(1-H-tétrazol-5-yl)biphényl-4-yl)méthyl]-1,2,4-triazolo [1,5-a] pyrimidine] | 63 | 28 | 
7 | CCCc1c(Cc2ccc(-c3ccccc3-c3nnn[nH]3)cc2)c(N)nc2ncnn12 [Exemple 77, 5-amino-7-propyl-6-[(2'-(1-H-tétrazol-5-yl)biphényl-4-yl)méthyl]-1,2,4-triazolo [1,5-a] pyrimidine] | 63 | 31 | 
8 | CCCc1nc2nncn2c(O)c1Cc1ccc(-c2ccccc2-c2nnn[nH]2)cc1 [Exemple 65, 5-hydroxy-7-propyl-6-[(2'-(1-H-tétrazol-5-yl)biphényl-4-yl)méthyl]-1,2,4 triazolo [4,3-a] pyrimidine] | 63 | 47 | 
9 | 7-N,N-diethylamino-5-propyl-6-[(2'-(1-H-tétrazol-5-yl) biphényl-4-yl) méthyl]-1,2,4-triazolo [1,5-a] pyrimidine [Exemple 69] | 69 | 19 | 100
10 | CCCc1nc2ncnn2c(O)c1Cc1ccc(-c2ccccc2-c2nnn[nH]2)cc1 [Exemple 62, 7-hydroxy-5-propyl-6-[(2'-(1-H-tétrazol-5-yl)biphényl-4-yl)méthyl]-1,2,4-triazolo [1,5-a]pyrimidine] | 65 | 52 | 
